Data published in US20230339896A1, “HPK1 INHIBITORS AND USES THEREOF” (QILU REGOR THERAPEUTICS INC., priority 2020, published 2023).

Assays:
HPK1 = HPK1 (Homo sapiens (Human), UniProt Q92918); assay: HPK1 biochemical assay (ADP-GLO Kinase Assay); details: ADP-GLO, 10 µM ATP, MBP substrate; read-out: HPK1 IC50
From the text: This example used the ADP-GLO™ Kinase Assay to measure the effect of potential HPK1 inhibitor compounds on HPK1 kinase activity.
The ADP-GLO™ Kinase Assay (Promega Corp., Madison, WI) measures ADP formed from a kinase reaction. According to the manufacture, the ADP formed in a kinase assay is first converted into ATP, which is then used to generate light in a luciferase reaction. The luminescence generated correlates with kinase activity. An exemplary experimental setting is described below, though minor adjustments can be made in individual assays.
Serial 3-fold dilution of compoounds from 10 µM (top concentration) to 0.508 nM (lowest concentration). Positive control is 10 µM Reference + enzyme + substrate. Negative control is 1% DMSO + enzyme + substrate.
40 mM Tris pH7.5; 20 mM MgC12, 0.1 mg/ml BSA, 50 µM DTT Buffer stock
• 1) The compounds were diluted to 1 mM, by mixing 10 µL of 10 mM respective compound stocks with 90 µL of DMSO. • 2) The compounds were then diluted 3-fold for 10 doses (5 µL to 10 µL dilution) by BRAVO. The top compound conc. was 1 mM (100×), DMSO Conc. was 100%. • 3) Transfer 100 nL of each diluted compound sample to 384-well plate (Corning-4512) by ECHO. • 4) Centrifuge the plate at 1,500 rpm for 1 minute.
20 µM ATP, 0.2 µg/µL MBP in Kinase Buffer (final concentration: 10 µM ATP, 0.1 µg/µL MBP)
• 5. Preparation of 2× HPK1 working solution with assay buffer. HPK1 final concentration was 0.6 ng/µL. […] Add 5 µL/well of 2× HPK1 working solution, Centrifuge at 1,500 rpm for 1 minute. • 7. Add 5 µL/well of 2× ATP-Substrate, Centrifuge at 1,500 rpm for 1 minute. • 8. Incubate at 25° C. for 1 hour (or 6 hours for compounds with high potency). • 9. Add 5 µL/well ADP-GLO™ Reagent to stop the kinase reaction and deplete the unconsumed ATP. Centrifuge at 1,500 rpm for 1 minute. Incubate at 25° C. for 40 min. • 10. Add 10 µL of Kinase Detection Reagent to convert ADP to ATP. Centrifuge at 1,500 rpm for 1 minute. Incubate at 25° C. for 40 min. • 11. Record luminescence signal on an Envision plate reader (384-CTG).
The percent (%) inhibition at each concentration of compound is calculated based on and relative to the signal in the High and Low control wells contained within each assay plate. […] The concentrations and % inhibition values for tested compounds were plotted and the concentration of compound required for 50% inhibition (IC50) was determined with a Three-parameter logistic dose response equation. The endpoint value (IC50) for the reference peptide/compound was evaluated in each experiment as a quality control measure. If the endpoint value was within 3-fold of the expected value, then the experiment was deemed acceptable.

Human Pan T cells = assay: IL2 & IFN-γ released by human pan T cell (ELISA); assay type: cell-based; details: for EC50 / Human Pan T cells EC2x (nM, IL-2): IL-2, anti-CD3/CD28 stimulation, 48 hours; for Human Pan T cells EC2x (nM, IL-2): concentration giving 200% response (2 folds) over DMSO control; for Max fold change: IL-2 response over DMSO control, human pan T cells
From the text: This example is an assay method that can be used to determine compound effects on IL2 & IFN-γ release using pan T cells and ELISA assay format.
Procedures for Pan T isolation and Reagent preparation (Day 0): • 1. Cell Growth Medium: • RPMI1640: ATCC, Cat# 30-2001 • 10% FBS: Gibco, Cat# 10099141 • 1% Pen-Strep: Gibco, Cat # 15140122 • 1% Non-essential amino: Gibco, Cat #11140050 • Beta- Mercaptoethanol: Gibco, Cat#21985023 • 2. Pan T isolation buffer preparation: • Prepare a solution containing phosphate-buffered saline (PBS), pH 7.2, 0.5% bovine serum albumin (BSA), and 2 mM EDTA by diluting MACS® BSA Stock Solution (# 130-091-376) 20 times with autoMACS® Rinsing Solution. Keep buffer at 4° C. Degas buffer before use, as air bubbles could block the column.
• 3. Thawing of frozen PBMC • 1) Pre-heat medium at 37° C. water bath. • 2) Rapidly thaw cells in 37° C. water bath. • 3) Add the pre-warmed medium into 15 mL tube. Transfer cells to the tube. • 4) 300 × g centrifuge for 8 min. (centrifuge increase 0, decrease 0). • 5) Wash the PBMC using Rinsing buffer. • 6) Centrifuge PBMC at 300 × g for 8 min, wash it twice (centrifuge increase 9, decrease 1). • 7) Resuspend the cells with Pan T cells isolation buffer and count cells number. • 4. Pan T cells isolation: • Cell staining with microbead cocktail • 1) Prepare cells and determine cell number. Filter cells by 70 µm cell strainer. • 2) Resuspend cell pellet in 40 µL of buffer per 10^7 total cells. • 3) Add 10 µL of Pan T Cell Biotin-Antibody Cocktail per 10^7 total cells. • 4) Mix well and incubate for 10 minutes in the refrigerator (ice). • 5) Add 30 µL of buffer per 10^7 total cells. • 6) Add 20 µL of Pan T Cell MicroBead Cocktail per 10^7 total cells. • 7) Mix well and incubate for 15 minutes in the refrigerator (ice). • 8) Proceed to subsequent magnetic cell separation.
Subsequent manual cell separation: • 1) Place LS Column in the magnetic field of a suitable MACS Separator. For details refer to the respective MACS Column data sheet. • 2) Prepare column by rinsing with 3 mL of buffer. • 3) Apply cell suspension onto the column. Collect flow-through, which represents the enriched T cells. • 4) Wash column with 5 mL of buffer. Collect unlabeled cells that pass through, representing the enriched T cells.
Reminder: Always wait until the column reservoir is empty before proceeding to the next step. • 5. Pan T cell FACS: • 1) Take out 50 µL of PBMC and Pan T cells to FACS tubes respectively. • 2) Incubate cells with anti-human CD3/CD4/CD8 antibodies (1 µL/1 µL/1 µL /tube) for 20 min at 4° C. For unstained control, incubate cells with FACS staining buffer. • 3) Wash 2 times with cold staining buffer (PBS with 0.2%BSA and 1 mM EDTA). • 4) Run FACS. Gate CD3^+, CD3^+CD4^+, and CD3^+CD8^+ population for % analysis. • 5) If the purity of Pan T cells is higher than 90%, dilute cell suspension to 1 million cells/mL with the appropriate volume of Cell Culture Media. • 6) Dispense the cell suspension into a sterile, disposable reservoir for future use.
Procedures for preparation of compounds and anti-human CD3/CD28 (Day 0): • 1. Compound preparation • Compound serial dilution (source plate 1000×) • Compounds are solubilized in 100% DMSO to a concentration of 10 mM. Then they were 3-fold serially diluted to 8-point doses. • 4× Compound dose preparation (inter plate: Corning-3599): • Prepare 4× compound solution in culture medium. Pipet up and down. For the ZPE control, prepare 0.4% DMSO (4×) in culture medium. For the HPE control, prepare 0.4 µM of RGT003-026 (4×) in culture medium. • 2. Anti-human CD3 (stock conc. 6.76 mg/ml): stored at 4° C. • 1) Dilute anti-human CD3 with PBS to final conc. of 0.5 µg/mL. • 2) Add 50 µL /well of CD3 to each well, except for the positive and negative control wells. […] Rinse each well twice with 200 µL of sterile PBS each time. • 3. […]

HPK1, sequence (Q92918 whole entry): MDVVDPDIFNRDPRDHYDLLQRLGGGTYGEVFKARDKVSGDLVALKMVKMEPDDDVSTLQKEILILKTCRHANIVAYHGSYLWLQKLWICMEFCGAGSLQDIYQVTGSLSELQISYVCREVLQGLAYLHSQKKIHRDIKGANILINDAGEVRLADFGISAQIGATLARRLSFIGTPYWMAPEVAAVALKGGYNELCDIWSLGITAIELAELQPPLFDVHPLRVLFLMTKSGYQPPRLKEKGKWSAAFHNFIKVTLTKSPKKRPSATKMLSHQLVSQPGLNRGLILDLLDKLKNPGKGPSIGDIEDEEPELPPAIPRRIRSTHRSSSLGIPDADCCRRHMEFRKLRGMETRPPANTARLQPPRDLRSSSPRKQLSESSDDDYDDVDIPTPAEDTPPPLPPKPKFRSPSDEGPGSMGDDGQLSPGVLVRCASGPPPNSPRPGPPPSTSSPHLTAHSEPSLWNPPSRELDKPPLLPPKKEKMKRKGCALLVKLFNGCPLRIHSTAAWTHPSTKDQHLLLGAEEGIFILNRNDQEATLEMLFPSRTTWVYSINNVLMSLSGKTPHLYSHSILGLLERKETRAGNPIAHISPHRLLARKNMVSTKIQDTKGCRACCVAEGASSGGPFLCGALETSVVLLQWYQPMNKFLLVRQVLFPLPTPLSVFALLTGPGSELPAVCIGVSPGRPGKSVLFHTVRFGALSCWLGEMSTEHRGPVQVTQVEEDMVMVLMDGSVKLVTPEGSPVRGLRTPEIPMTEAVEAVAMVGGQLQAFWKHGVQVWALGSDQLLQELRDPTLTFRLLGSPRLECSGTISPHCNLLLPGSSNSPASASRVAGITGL

SMILES	IC50 (HPK1)	EC50 (Human Pan T cells; Homo sapiens, T-cell)	Human Pan T cells EC2x (nM, IL-2) (Human Pan T cells)	Max fold change (Human Pan T cells)	EC50 (Human Pan T cells)
COc1cc2c(cc1Nc1ncc(Cl)c(N3CC(C)(CC(=O)O)c4cc(F)ccc43)n1)CN(C)CC2 (centres unmarked) [Compound 9, reference compound]	1.1 nM	68 nM	62 (N = 2) nM	3.24 (N = 2)	–
COc1cc2c(cc1Nc1ncc(Cl)c(N3C[C@@](C)(CC(=O)O)c4ccccc43)n1)CN(C)CC2 (single isomer, unassigned) [Example 3, (S)-2-(1-(5-chloro-2-((6-methoxy-2-methyl-1,2,3,4-tetrahydroisoquinolin-7-yl)amino)pyrimidin-4-yl)-3-methylindolin-3-yl)acetic acid or (R)-2-(1-(5-chloro-2-((6-methoxy-2-methyl-1,2,3,4-tetrahydroisoquinolin-7-yl)amino)pyrimidin-4-yl)-3-methylindolin-3-yl)acetic acid]	24 nM	–	> 5760 (N = 2) nM	1.96 (N = 2)	911 nM
